Series [1] concerns the target T1, recombinant human 5-HT5A receptor (Homo sapiens, UniProt P47898).
T1 construct: expressed in transfected cells; host or cells: HEK-EBNA (Human Embryonic Kidney-EBNA) cells, transient cDNA expression, membranes
The experiment in a line: [3H]LSD radioligand binding assay. Conditions: [3H]LSD (approximately 1 nM), membranes from HEK-EBNA cells transiently expressing 5-HT5A receptors; Ki calculated from IC50 using the Cheng-Prussoff equation; read-out: Ki/nM 5-HT5A. As to the method:
A [^3H]LSD radioligand binding assay was used to determine the affinity of the compounds for the recombinant human 5-HT5A receptor, in membranes from transiently (cDNA) expressed 5-HT5A receptors in Human Embryonic Kidney-EBNA (HEK-EBNA) cells. Assay buffer consisted of Tris (50 mM) buffer containing 1 mM EGTA, 10 mM MgCl2 (pH 7.4) and 10 μM pargyline. The binding assay was carried out in 96-well-plates in the presence of [^3H]LSD (approximately 1 nM), approximately 2 μg/well of membrane protein, and 0.5 mg of Ysi-poly-1-lysine SPA beads in a final volume of 200 μl of buffer. Non-specific binding was defined using methiothepin 2 μM. Compounds were tested at 10 concentrations. All assays were conducted in duplicate and repeated at least two times. Assay plates were incubated for 120 min at room temperature before centrifugation. Bound ligand was determined using a Packard Topcount scintillation counter. IC50 values were calculated using a non-linear curve fitting program and Ki values calculated using the Cheng-Prussoff equation.

Each structure is given as a SMILES string.

T1 sequence (P47898 whole entry): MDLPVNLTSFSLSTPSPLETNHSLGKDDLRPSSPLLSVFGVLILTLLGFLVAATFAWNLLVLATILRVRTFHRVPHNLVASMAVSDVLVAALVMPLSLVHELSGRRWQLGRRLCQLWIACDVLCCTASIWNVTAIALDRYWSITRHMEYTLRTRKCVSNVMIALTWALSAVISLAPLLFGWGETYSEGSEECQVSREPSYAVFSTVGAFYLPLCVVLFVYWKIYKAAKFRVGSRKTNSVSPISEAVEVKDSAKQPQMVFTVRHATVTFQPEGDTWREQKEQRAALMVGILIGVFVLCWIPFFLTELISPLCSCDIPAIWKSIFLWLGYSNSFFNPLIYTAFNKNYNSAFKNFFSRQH

Regarding `COc1cccc2c1C(Nc1ccc3cc(Nc4cccc(C(F)(F)F)n4)ccc3n1)CC2` (racemic) [Example 91, rac-N^2-(7-Methoxy-indan-1-yl)-N^6-(6-trifluoromethyl-pyridin-2-yl)-quinoline-2,6-diamine], the melting point (in general, the temperature of the solid-liquid transition) worked out at 126 °C. In addition, the Ki in series [1] was 5.4 nM. For the compound `COc1cccc2c1C(Nc1ccc3cc(Nc4nccc(C(F)(F)F)n4)ccc3n1)CC2` (racemic) [Example 92, rac-N^2-(7-Methoxy-indan-1-yl)-N^6-(4-trifluoromethyl-pyrimidin-2-yl)-quinoline-2,6-diamine], the melting point is 196 °C. Moreover, the Ki in series [1] was 4.3 nM.

As to `COc1cccc2c1C(Nc1ccc3cc(Nc4nc(C)cc(C)n4)ccc3n1)CC2` (racemic) [Example 93, rac-N^6-(4,6-Dimethyl-pyrimidin-2-yl)-N^2-(7-methoxy-indan-1-yl)-quinoline-2,6-diamine], the melting point came to 150 °C. In addition, the Ki in series [1] was 3.4 nM. For `COc1cccc2c1C(Nc1ccc3cc(Nc4cc(C)on4)ccc3n1)CC2` (racemic) [Example 95, rac-N^2-(7-Methoxy-indan-1-yl)-N^6-(5-methyl-isoxazol-3-yl)-quinoline-2,6-diamine], the melting point is 109 °C. The Ki in series [1] is 3.5 nM.

The compound `Cc1cc(C)nc(Nc2ccc3nc(NC4COc5ccccc54)ccc3c2)n1` (racemic) [Example 97, rac-N^2-(2,3-Dihydro-benzofuran-3-yl)-N^6-(4,6-dimethyl-pyrimidin-2-yl)-quinoline-2,6-diamine] yielded a melting point of 213 °C. With `FC(F)(F)c1ccnc(Nc2ccc3nc(NC4COc5ccccc54)ccc3c2)n1` (racemic) [Example 98, rac-N^2-(2,3-Dihydro-benzofuran-3-yl)-N^6-(4-trifluoromethyl-pyrimidin-2-yl)-quinoline-2,6-diamine], the melting point is 128 °C. Same read-out and setting: for `Cc1cc(Nc2ccc3nc(NC4COc5ccccc54)ccc3c2)no1` (racemic) [Example 101, rac-N^2-(2,3-Dihydro-benzofuran-3-yl)-N^6-(5-methyl-isoxazol-3-yl)-quinoline-2,6-diamine] the value was 195 °C. In turn, `Fc1ccc2c(c1)CCC2Nc1ccc2cc(Nc3nccc(C(F)(F)F)n3)ccc2n1` (racemic) [Example 103, rac-N^2-(5-Fluoro-indan-1-yl)-N^6-(4-trifluoromethyl-pyrimidin-2-yl)-quinoline-2,6-diamine] had a melting point of 112 °C. The Ki in series [1] was 13.7 nM. The corresponding values for `Cc1cc(Nc2ccc3nc(NC4CCc5cc(F)ccc54)ccc3c2)no1` (racemic) [Example 106, rac-N^2-(5-Fluoro-indan-1-yl)-N^6-(5-methyl-isoxazol-3-yl)-quinoline-2,6-diamine] are 166 °C and 7.3 nM. `COc1cccc2c1C(Nc1ccc3cc(Nc4cccc(C(F)(F)F)n4)ccc3n1)CO2` (racemic) [Example 109, rac-N^2-(4-Methoxy-2,3-dihydro-benzofuran-3-yl)-N^6-(6-trifluoromethyl-pyridin-2-yl)-quinoline-2,6-diamine] showed a melting point of 132 °C. Further, the Ki in series [1] was 26.1 nM.

Turning to `COc1cccc2c1C(Nc1ccc3cc(Nc4nccc(C(F)(F)F)n4)ccc3n1)CO2` (racemic) [Example 110, rac-N^2-(4-Methoxy-2,3-dihydro-benzofuran-3-yl)-N^6-(4-trifluoromethyl-pyrimidin-2-yl)-quinoline-2,6-diamine], the melting point was 185 °C. The Ki in series [1] was 11.8 nM. The corresponding values for `COc1cccc2c1C(Nc1ccc3cc(Nc4nc(C)cc(C)n4)ccc3n1)CO2` (racemic) [Example 111, rac-N^6-(4,6-Dimethyl-pyrimidin-2-yl)-N^2-(4-methoxy-2,3-dihydro-benzofuran-3-yl)-quinoline-2,6-diamine] are 145 °C and 9.1 nM. On to `COc1cccc2c1C(Nc1ccc3cc(Nc4cc(C)on4)ccc3n1)CO2` (racemic) [Example 113, rac-N^2-(4-Methoxy-2,3-dihydro-benzofuran-3-yl)-N^6-(5-methyl-isoxazol-3-yl)-quinoline-2,6-diamine], for which the melting point is 222 °C. For the same compound, the Ki in series [1] was 14.4 nM.

For the compound `O=C(NCc1ccc(F)cc1)c1ccc2nc(N[C@@H]3CCc4ccccc43)ccc2c1` [Example 52, 2-((R)-Indan-1-ylamino)-quinoline-6-carboxylic acid 4-fluoro-benzylamide], the melting point turned out to be 175 °C. In turn, `COc1ccccc1CNC(=O)c1ccc2nc(N[C@@H]3CCc4ccccc43)ccc2c1` [Example 55, 2-((R)-Indan-1-ylamino)-quinoline-6-carboxylic acid 2-methoxy-benzylamide] displayed a melting point of 168 °C. In addition, the Ki in series [1] is 281 nM. `ON=C(c1ccc(F)cc1)c1ccc2nc(N[C@@H]3CCc4ccccc43)ccc2c1` [Example 56, (4-Fluoro-phenyl)-[2-((R)-indan-1-ylamino)-quinolin-6-yl]-methanone oxime] yielded a melting point of 225.5 °C. The Ki in series [1] was 141 nM.

Turning to `Fc1ccc(CNCc2ccc3nc(N[C@@H]4CCc5ccccc54)ccc3c2)cc1` [Example 64, {6-[(4-Fluoro-benzylamino)-methyl]-quinolin-2-yl}-(R)-indan-1-yl-amine], the Ki in series [1] was 348 nM. With `c1cnc(Nc2ccc3nc(N[C@@H]4CCc5ccccc54)ccc3c2)nc1` [Example 66, N^2—(R)-Indan-1-yl-N6-pyrimidin-2-yl-quinoline-2,6-diamine], the melting point came out at 142 °C. Moreover, the Ki in series [1] was 23.2 nM. `Cc1cc(C)nc(Nc2ccc3nc(N[C@@H]4CCc5ccccc54)ccc3c2)n1` [Example 67, N^6-(4,6-Dimethyl-pyrimidin-2-yl)-N^2—(R)-indan-1-yl-quinoline-2,6-diamine] came in with a melting point of 88 °C. Besides, in series [1], the Ki was 15.7 nM. The corresponding values for `Cc1ccnc(Nc2ccc3nc(N[C@@H]4CCc5ccccc54)ccc3c2)n1` [Example 68, N^2—(R)-Indan-1-yl-N^6-(4-methyl-pyrimidin-2-yl)-quinoline-2,6-diamine] are 103 °C and 20 nM. `c1ccc(Nc2ccc3nc(N[C@@H]4CCc5ccccc54)ccc3c2)nc1` [Example 69, N^2—(R)-Indan-1-yl-N^6-pyridin-2-yl-quinoline-2,6-diamine] had a melting point of 77 °C. Moreover, the Ki in series [1] was 20.4 nM. Regarding `Cc1cccc(Nc2ccc3nc(N[C@@H]4CCc5ccccc54)ccc3c2)n1` [Example 72, N^2—(R)-Indan-1-yl-N^6-(6-methyl-pyridin-2-yl)-quinoline-2,6-diamine], the melting point amounted to 72 °C. Moreover, the Ki in series [1] was 7.7 nM. The like results for `FC(F)(F)c1ccnc(Nc2ccc3nc(N[C@@H]4CCc5ccccc54)ccc3c2)n1` [Example 73, N^2—(R)-Indan-1-yl-N^6-(4-trifluoromethyl-pyrimidin-2-yl)-quinoline-2,6-diamine] were, in that order, 165 °C and 11 nM. The corresponding values for `Cc1cc(Nc2ccc3nc(N[C@@H]4CCc5ccccc54)ccc3c2)no1` [Example 74, N^2—(R)-Indan-1-yl-N^6-(5-methyl-isoxazol-3-yl)-quinoline-2,6-diamine] are 127 °C and 8.7 nM. `CC(C)(C)n1nnc(Nc2ccc3nc(N[C@@H]4CCc5ccccc54)ccc3c2)n1` [Example 75, N^6-(2-tert-Butyl-2H-tetrazol-5-yl)-N^2—(R)-indan-1-yl-quinoline-2,6-diamine] gave a melting point of 146 °C. In series [1], the Ki is 25.9 nM.

For `c1ccc2c(c1)CC[C@H]2Nc1ccc2cc(Nc3nnc(C4CC4)o3)ccc2n1` [Example 76, N^6-(5-Cyclopropyl-[1,3,4]oxadiazol-2-yl)-N^2—(R)-indan-1-yl-quinoline-2,6-diamine], the melting point was determined as 226 °C. In addition, in series [1], the Ki was 24.8 nM.

On to `Cc1nnc(Nc2ccc3nc(N[C@@H]4CCc5ccccc54)ccc3c2)o1` [Example 77, N^2—(R)-Indan-1-yl-N^6-(5-methyl-[1,3,4]oxadiazol-2-yl)-quinoline-2,6-diamine], for which the melting point amounted to 129 °C. Further, in series [1], the Ki was 21.2 nM.

Take `FC(F)(F)c1cccc(Nc2ccc3nc(N[C@@H]4CCc5ccccc54)ccc3c2)n1` [Example 80, N^2—(R)-Indan-1-yl-N^6-(6-trifluoromethyl-pyridin-2-yl)-quinoline-2,6-diamine]: the Ki in series [1] is 24.1 nM. In the case of `OCCc1cccc(Nc2ccc3nc(N[C@@H]4CCc5ccccc54)ccc3c2)c1` [Example 83, 2-{3-[2-((R)-Indan-1-ylamino)-quinolin-6-ylamino]-phenyl}-ethanol], the melting point was 109 °C. Moreover, the Ki in series [1] is 9.6 nM.

In the case of `CN(c1ccc2nc(N[C@@H]3CCc4ccccc43)ccc2c1)c1ccccn1` [Example 85, N^2—(R)-Indan-1-yl-N^6-methyl-N^6-pyridin-2-yl-quinoline-2,6-diamine], in series [1], the Ki is 225 nM.
